This experiment has as its target T1, AAK1 (Homo sapiens, UniProt Q2M2I8).
T1 construct: HA; expressed in transfected cells; host or cells: HEK293F
In words: HEK281 cell-based assay (phospho-mu2 Western blot in transfected HEK293F cells). The following applies: 3 hours incubation, read-out: CBA IC50. An outline of the steps: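 HEK293F cells co-transfected with full-length human AAK1/HA and Flag/AP2M1 were treated next day with 5 compound concentrations (3-fold dilutions) in DMEM+0.5% FBS for 3 hours at 37° C. Lysates were Western blotted for phospho-mu2, with total mu2 detected by anti-Flag.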

A word on the IC50: it is the concentration needed to halve the response being measured.

T1 sequence (Q2M2I8 1-863 isoform Q2M2I8-2): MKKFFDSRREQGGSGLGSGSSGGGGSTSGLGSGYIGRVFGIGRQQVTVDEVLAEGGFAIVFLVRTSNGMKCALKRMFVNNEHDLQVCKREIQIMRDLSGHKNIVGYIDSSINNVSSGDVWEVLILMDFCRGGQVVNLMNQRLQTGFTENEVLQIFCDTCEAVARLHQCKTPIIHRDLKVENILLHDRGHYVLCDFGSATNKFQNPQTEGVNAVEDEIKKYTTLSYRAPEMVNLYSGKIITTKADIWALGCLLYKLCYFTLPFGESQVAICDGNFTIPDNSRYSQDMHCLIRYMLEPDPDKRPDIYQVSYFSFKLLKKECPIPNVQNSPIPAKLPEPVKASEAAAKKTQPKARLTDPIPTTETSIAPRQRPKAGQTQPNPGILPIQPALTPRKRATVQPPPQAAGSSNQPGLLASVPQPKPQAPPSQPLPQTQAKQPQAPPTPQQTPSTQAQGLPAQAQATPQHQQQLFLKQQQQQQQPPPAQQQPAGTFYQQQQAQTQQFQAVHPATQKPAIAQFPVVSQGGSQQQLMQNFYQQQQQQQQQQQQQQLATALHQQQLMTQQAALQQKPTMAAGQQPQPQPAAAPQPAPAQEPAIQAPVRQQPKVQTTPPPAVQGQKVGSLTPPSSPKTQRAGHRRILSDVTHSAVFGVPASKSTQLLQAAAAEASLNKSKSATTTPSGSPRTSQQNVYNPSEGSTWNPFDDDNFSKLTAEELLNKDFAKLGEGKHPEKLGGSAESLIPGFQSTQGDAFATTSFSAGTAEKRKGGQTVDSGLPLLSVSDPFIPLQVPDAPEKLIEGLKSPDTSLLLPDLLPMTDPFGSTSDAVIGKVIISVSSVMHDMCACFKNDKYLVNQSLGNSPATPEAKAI

`CCOC(=O)N(CCNc1ccc2ncc(-c3ccc(C(N)=O)cc3)n2n1)C(C)C` [ethyl (2-((3-(4-carbamoylphenyl)imidazo[1,2-b]pyridazin-6-yl)amino)ethyl)(isopropyl)carbamate]: the IC50 was no more than 0.1 µM.

Take `CCOC(=O)N(C)CCNc1ccc2ncc(-c3ccc(C(N)=O)cc3)n2n1` [ethyl (2-((3-(4-carbamoylphenyl)imidazo[1,2-b]pyridazin-6-yl)amino)ethyl)(methyl)carbamate]: the IC50 is no more than 0.1 µM.

`CCOC(=O)N(C)CCCNc1ccc2ncc(-c3ccc(C(C)=O)s3)n2n1` [ethyl (3-((3-(5-acetylthiophen-2-yl)imidazo[1,2-b]pyridazin-6-yl)amino)propyl)(methyl)carbamate]: the IC50 is no more than 1 µM.

Regarding `CCOC(=O)N(CCNc1ccc2ncc(-c3ccncc3OC)n2n1)C(C)C` [ethyl isopropyl(2-((3-(3-methoxypyridin-4-yl)imidazo[1,2-b]pyridazin-6-yl)amino)ethyl)carbamate], the half-maximal inhibitory concentration (IC50) was no more than 0.01 µM.

For `CCOC(=O)N(C)CCNc1ccc2ncc(-c3ccc(C(=O)NC)cc3)n2n1` [ethyl methyl(2-((3-(4-(methylcarbamoyl)phenyl)imidazo[1,2-b]pyridazin-6-yl)amino)ethyl)carbamate], the concentration for half-maximal inhibition (IC50) is no more than 0.1 µM.

`CCOC(=O)N(C)CCNc1ccc2ncc(-c3ccc(C(=O)NC)s3)n2n1` [ethyl methyl(2-((3-(5-(methylcarbamoyl)thiophen-2-yl)imidazo[1,2-b]pyridazin-6-yl)amino)ethyl)carbamate]: the IC50 is no more than 0.1 µM.

Consider `CC(C)COC(=O)N(C)CCNc1ccc2ncc(-c3ccc(C(N)=O)cc3)n2n1` [isobutyl (2-((3-(4-carbamoylphenyl)imidazo[1,2-b]pyridazin-6-yl)amino)ethyl)(methyl)carbamate], for which the 50% inhibitory concentration (IC50) is no more than 0.1 µM.

For `COc1cnccc1-c1cnc2ccc(NCCN(C(=O)OCC(C)C)C(C)C)nn12` [isobutyl isopropyl(2-((3-(3-methoxypyridin-4-yl)imidazo[1,2-b]pyridazin-6-yl)amino)ethyl)carbamate], the IC50 was no more than 0.1 µM.

With `CNC(=O)c1ccc(-c2cnc3ccc(NCCN(C)C(=O)OCC(C)C)nn23)cc1` [isobutyl methyl(2-((3-(4-(methylcarbamoyl)phenyl)imidazo[1,2-b]pyridazin-6-yl)amino)ethyl)carbamate], the IC50 is no more than 0.1 µM.

In the case of `CC(C)OC(=O)N1CCN(c2ccc3ncc(-c4cccc5c4OCC5)n3n2)CC1` [isopropyl 4-(3-(2,3-dihydrobenzofuran-7-yl)imidazo[1,2-b]pyridazin-6-yl)piperazine-1-carboxylate], the 50% inhibitory concentration (IC50) is no more than 0.1 µM.

With `COc1cnccc1-c1cnc2ccc(N3CCN(C(=O)OC(C)C)CC3)nn12` [isopropyl 4-(3-(3-methoxypyridin-4-yl)imidazo[1,2-b]pyridazin-6-yl)piperazine-1-carboxylate], the half-maximal inhibitory concentration (IC50) is no more than 0.01 µM.

As to `CC(C)OC(=O)N1CCN(c2ccc3ncc(-c4cccc5c4OCO5)n3n2)CC1` [isopropyl 4-(3-(benzo[d][1,3]dioxo1-4-yl)imidazo[1,2-b]pyridazin-6-yl)piperazine-1-carboxylate], the half-maximal inhibitory concentration (IC50) was no more than 0.1 µM.

Take `CNC(=O)c1cnc2ccc(N3CCN(C(=O)OC(C)C)CC3)nn12` [isopropyl 4-(3-(methylcarbamoyl)imidazo[1,2-b]pyridazin-6-yl)piperazine-1-carboxylate]: the IC50 is no more than 0.1 µM.

Take `CC(C)OC(=O)N1CCN(c2ccc3ncc(-c4ccncc4)n3n2)CC1` [isopropyl 4-(3-(pyridin-4-yl)imidazo[1,2-b]pyridazin-6-yl)piperazine-1-carboxylate]: the IC50 was no more than 0.1 µM.

Take `CC(C)OC(=O)N(C)CCNc1ccc2ncc(-c3cn[nH]c3)n2n1` [isopropyl (2-((3-(1H-pyrazol-4-yl)imidazo[1,2-b]pyridazin-6-yl)amino)ethyl)(methyl)carbamate]: the IC50 is no more than 0.1 µM.

Turning to `Cc1nc(C)c(-c2cnc3ccc(NCCN(C)C(=O)OC(C)C)nn23)s1` [isopropyl (2-((3-(2,4-dimethylthiazol-5-yl)imidazo[1,2-b]pyridazin-6-yl)amino)ethyl)(methyl)carbamate], the half-maximal inhibitory concentration (IC50) was no more than 0.1 µM.

On to `CC(C)OC(=O)N(C)CCNc1ccc2ncc(-c3ccnc(N)c3)n2n1` [isopropyl (2-((3-(2-aminopyridin-4-yl)imidazo[1,2-b]pyridazin-6-yl)amino)ethyl)(methyl)carbamate], for which the IC50 was no more than 0.1 µM.

For `CC(C)OC(=O)N(C)CCNc1ccc2ncc(-c3ccccc3F)n2n1` [isopropyl (2-((3-(2-fluorophenyl)imidazo[1,2-b]pyridazin-6-yl)amino)ethyl)(methyl)carbamate], the IC50 is no more than 0.1 µM.

For `COc1ccccc1-c1cnc2ccc(NCCN(C)C(=O)OC(C)C)nn12` [isopropyl (2-((3-(2-methoxyphenyl)imidazo[1,2-b]pyridazin-6-yl)amino)ethyl)(methyl)carbamate], the 50% inhibitory concentration (IC50) is no more than 0.1 µM.

`COc1cnccc1-c1cnc2ccc(NCCN(C)C(=O)OC(C)C)nn12` [isopropyl (2-((3-(3-methoxypyridin-4-yl)imidazo[1,2-b]pyridazin-6-yl)amino)ethyl)(methyl)carbamate]: the IC50 was no more than 0.1 µM.

`COc1cnccc1-c1cnc2ccc(NCCNC(=O)OC(C)C)nn12` [isopropyl (2-((3-(3-methoxypyridin-4-yl)imidazo[1,2-b]pyridazin-6-yl)amino)ethyl)carbamate]: the IC50 is no more than 0.1 µM.

In the case of `COc1cc(F)c(F)cc1-c1cnc2ccc(NCCN(C(=O)OC(C)C)C(C)C)nn12` [isopropyl (2-((3-(4,5-difluoro-2-methoxyphenyl)imidazo[1,2-b]pyridazin-6-yl)amino)ethyl)(isopropyl)carbamate], the concentration for half-maximal inhibition (IC50) is no more than 0.1 µM.

With `CC(C)OC(=O)N(CCNc1ccc2ncc(-c3ccc(C(N)=O)cc3)n2n1)C(C)C` [isopropyl (2-((3-(4-carbamoylphenyl)imidazo[1,2-b]pyridazin-6-yl)amino)ethyl)(isopropyl)carbamate], the IC50 was no more than 0.1 µM.

For the compound `CC(C)OC(=O)N(C)CCNc1ccc2ncc(-c3ccc(C(N)=O)cc3)n2n1` [isopropyl (2-((3-(4-carbamoylphenyl)imidazo[1,2-b]pyridazin-6-yl)amino)ethyl)(methyl)carbamate], the IC50 is no more than 0.01 µM.

With `COc1cc(F)ccc1-c1cnc2ccc(NCCN(C)C(=O)OC(C)C)nn12` [isopropyl (2-((3-(4-fluoro-2-methoxyphenyl)imidazo[1,2-b]pyridazin-6-yl)amino)ethyl)(methyl)carbamate], the IC50 was no more than 0.1 µM.

As to `COc1ccc(F)cc1-c1cnc2ccc(NCCN(C(=O)OC(C)C)C(C)C)nn12` [isopropyl (2-((3-(5-fluoro-2-methoxyphenyl)imidazo[1,2-b]pyridazin-6-yl)amino)ethyl)(isopropyl)carbamate], the IC50 was no more than 0.1 µM.

As for `COc1ccc(F)cc1-c1cnc2ccc(NCCN(C)C(=O)OC(C)C)nn12` [isopropyl (2-((3-(5-fluoro-2-methoxyphenyl)imidazo[1,2-b]pyridazin-6-yl)amino)ethyl)(methyl)carbamate], the IC50 is no more than 0.01 µM.

In the case of `CC(C)OC(=O)N(C)CCCNc1ccc2ncc(-c3ccc(CN)cc3)n2n1` [isopropyl (3-((3-(4-(aminomethyl)phenyl)imidazo[1,2-b]pyridazin-6-yl)amino)propyl)(methyl)carbamate], the half-maximal inhibitory concentration (IC50) was no more than 0.1 µM.

Turning to `CC(=O)c1ccc(-c2cnc3ccc(NCCCN(C)C(=O)OC(C)C)nn23)s1` [isopropyl (3-((3-(5-acetylthiophen-2-yl)imidazo[1,2-b]pyridazin-6-yl)amino)propyl)(methyl)carbamate], the concentration for half-maximal inhibition (IC50) is no more than 0.1 µM.

Take `CCN(CCNc1ccc2ncc(-c3ccncc3OC)n2n1)C(=O)OC(C)C` [isopropyl ethyl(2-((3-(3-methoxypyridin-4-yl)imidazo[1,2-b]pyridazin-6-yl)amino)ethyl)carbamate]: the IC50 is no more than 0.1 µM.

In the case of `CCN(CCNc1ccc2ncc(-c3ccc(C(=O)NC)cc3)n2n1)C(=O)OC(C)C` [isopropyl ethyl(2-((3-(4-(methylcarbamoyl)phenyl)imidazo[1,2-b]pyridazin-6-yl)amino)ethyl)carbamate], the IC50 is no more than 0.1 µM.

Regarding `COc1ccccc1-c1cnc2ccc(NCCN(C(=O)OC(C)C)C(C)C)nn12` [isopropyl isopropyl(2-((3-(2-methoxyphenyl)imidazo[1,2-b]pyridazin-6-yl)amino)ethyl)carbamate], the IC50 was no more than 0.1 µM.

Take `COc1cnccc1-c1cnc2ccc(NCCN(C(=O)OC(C)C)C(C)C)nn12` [isopropyl isopropyl(2-((3-(3-methoxypyridin-4-yl)imidazo[1,2-b]pyridazin-6-yl)amino)ethyl)carbamate]: the IC50 was no more than 0.01 µM.

Take `CNC(=O)c1ccc(-c2cnc3ccc(NCCN(C(=O)OC(C)C)C(C)C)nn23)cc1` [isopropyl isopropyl(2-((3-(4-(methylcarbamoyl)phenyl)imidazo[1,2-b]pyridazin-6-yl)amino)ethyl)carbamate]: the IC50 was no more than 0.1 µM.

Consider `CC(C)OC(=O)N(CCNc1ccc2ncc(-c3ccncc3)n2n1)C(C)C` [isopropyl isopropyl(2-((3-(pyridin-4-yl)imidazo[1,2-b]pyridazin-6-yl)amino)ethyl)carbamate], for which the concentration for half-maximal inhibition (IC50) is no more than 0.1 µM.

With `CC(C)OC(=O)N(CCNc1ccc2ncc(-c3ccccc3)n2n1)C(C)C` [isopropyl isopropyl(2-((3-phenylimidazo[1,2-b]pyridazin-6-yl)amino)ethyl)carbamate], the IC50 was no more than 0.1 µM.

On to `CNC(=O)c1ccc(-c2cnc3ccc(NCCN(C)C(=O)OC(C)C)nn23)cc1` [isopropyl methyl(2-((3-(4-(methylcarbamoyl)phenyl)imidazo[1,2-b]pyridazin-6-yl)amino)ethyl)carbamate], for which the concentration for half-maximal inhibition (IC50) was no more than 0.1 µM.

For the compound `CC(C)OC(=O)N(C)CCNc1ccc2ncc(-c3ccc(C4CCCN4)cc3)n2n1` (stereo not drawn) [isopropyl methyl(2-((3-(4-(pyrrolidin-2-yl)phenyl)imidazo[1,2-b]pyridazin-6-yl)amino)ethyl)carbamate], the 50% inhibitory concentration (IC50) is no more than 0.01 µM.

As for `CC(C)OC(=O)N(C)CCNc1ccc2ncc(-c3cscn3)n2n1` [isopropyl methyl(2-((3-(thiazol-4-yl)imidazo[1,2-b]pyridazin-6-yl)amino)ethyl)carbamate], the IC50 was no more than 0.1 µM.

Source of the values: patent publication US8969565B2, “Imidazo[1,2-b]pyridazine-based compounds, compositions comprising them, and methods of their use” (Lexicon Pharmaceuticals, Inc., priority 2012, dated 2015).
